Data from patent publication US20070128217A1 (priority 2003, published 2007).

Experiments:
[1] = system: antibodies in sera from SARS patients (sera 1a, 1b, 2, 6, 37, 62, London, SARS-yellow, SARS-green); assay type: binding, human
[2] = system: control sera (pooled serum of ten healthy LUMC hospital workers; commercial negative donor pooled serum from the Dutch bloodbank); assay type: binding, human
[3] = system: rabbit serum obtained by immunizing a rabbit with the SARS-CoV strain Frankfurt 1; assay type: binding; design: Binding of a rabbit serum to linear peptides / Binding of a rabbit serum to looped peptides / Rabbit serum linear peptides / Rabbit serum looped peptides / Binding of a rabbit serum to linear peptides of protein N of SARS-CoV Urbani (Rabbit serum linear peptides) / Binding of a rabbit serum to looped/cyclic peptides of protein N of SARS-CoV Urbani (Rabbit serum looped peptides): unit not given here

Sequence: YSFVSEETGTLIVNS
- Binding of serum 1a to linear peptides of protein E of SARS-CoV Urbani [1]: 0.8
- Binding of serum 1a to looped/cyclic peptides of protein E of SARS-CoV Urbani [1]: 0.7
- Binding of serum 1b to linear peptides of protein E of SARS-CoV Urbani [1]: 0.7
- Binding of serum 1b to looped/cyclic peptides of protein E of SARS-CoV Urbani [1]: 0.5
- Binding of serum 2 to linear peptides of protein E of SARS-CoV Urbani [1]: 0.5
- Binding of serum 2 to looped/cyclic peptides of protein E of SARS-CoV Urbani [1]: 0.7
- Binding of serum 6 to linear peptides of protein E of SARS-CoV Urbani [1]: 0.5
- Binding of serum 6 to looped/cyclic peptides of protein E of SARS-CoV Urbani [1]: 0.4
- Binding of serum 37 to linear peptides of protein E of SARS-CoV Urbani [1]: 0.6
- Binding of serum 37 to looped/cyclic peptides of protein E of SARS-CoV Urbani [1]: 0.8
- Binding of serum 62 to linear peptides of protein E of SARS-CoV Urbani [1]: 0.5
- Binding of serum 62 to looped/cyclic peptides of protein E of SARS-CoV Urbani [1]: 0.8
- Binding of serum London to linear peptides of protein E of SARS-CoV Urbani [1]: 0.7
- Binding of serum London to looped/cyclic peptides of protein E of SARS-CoV Urbani [1]: 0.4
- Binding of serum SARS-green to linear peptides of protein E of SARS-CoV Urbani [1]: 0.7
- Binding of serum SARS-green to looped/cyclic peptides of protein E of SARS-CoV Urbani [1]: 0.4
- Binding of serum SARS-yellow to linear peptides of protein E of SARS-CoV Urbani [1]: 0.6
- Binding of serum SARS-yellow to looped/cyclic peptides of protein E of SARS-CoV Urbani [1]: 0.7
- Binding of Control Serum Blood-Bank to Looped peptides [2]: 0.6
- Binding of Control serum Blood-bank to linear peptides [2]: 0.7
- Binding of Control serum LUMC to linear peptides [2]: 1.0
- Binding of Control serum LUMC to looped peptides [2]: 0.8
- Binding of a rabbit serum to linear peptides [3]: 0.2
- Binding of a rabbit serum to looped peptides [3]: 0.4
